Earlier results as cited in US20030118473A1, “Method and apparatus for ozone decontamination of biological liquids” (priority 2001, published 2003).

System: hepatitis C infection
Details: preliminary research on hepatitis C infection; ozone therapy

O=[O+][O-] [ozone, Ozone]
effect on hepatic enzymes (SGOT, SGPT, alkaline phosphatase): significantly normalize hepatic enzymes
